Source: a melting point compilation (Tetko et al.; mined from patent text by program, amines drawn as free bases though some values may be those of a salt)

| SMILES | melting point [°C] |
| --- | --- |
| N#Cc1ccccc1-c1ccc2[nH]c(CCl)nc2c1 | 150 to 158 |
| CCCC(C=NNC(=O)OCC)c1ccc(Cl)cc1Cl (stereo not given) | 127 to 129 |
| CN(C)C=Cc1ccc(-c2csc(-c3ccc(F)cc3)n2)cc1[N+](=O)[O-] | 137 to 138 |
| CN(C)C=C1C(=O)OC(=O)c2ccccc21 | 137 to 140 |
| CS(=O)(=O)N1CCCC(NC(=O)C(CC2CCCC2)NC(=O)c2ccco2)C(=O)C1 (stereo not given) | 158 to 161 |
| C#Cc1ccc(CO[C@@H]2COc3nc([N+](=O)[O-])cn3C2)nc1 | 135 to 136 |
| CSc1nc(O)cc(O)n1 | > 250 |
| COc1cc(OC)c(C(=O)CCCCCl)c(OC)c1 | 53 to 55 |
| CCCCCCCCCCCCc1nnn(C(C(=O)Nc2c(OC)cc(OC)cc2OC)C(C)C)n1 (stereo not given) | 135 to 137 |
| C=Cc1cn(-c2c(Cl)cc(C(F)(F)F)cc2Cl)cc1C#N | 55 to 60 |
| CCCCCCCCCNC(=O)CCC(=O)O | 114 to 116 |
| COc1ccc2c3c(c(=O)oc2c1)CNCC3 | 171 to 180 |
| O=CCCCCCCCCCCC(=O)O | 53 to 54 |
| CC1(C)Oc2ccc(C#N)cc2[C@@H](N2CCCCC2=O)[C@@H]1O (relative stereo) | 155 |
| NS(=O)(=O)c1ccc(-c2cc(-c3nc(-c4ccc(C(F)(F)F)cc4)cc(C(F)(F)F)n3)ccn2)s1 | 262 |
| N#CCC(=O)NCc1ccccn1 | 82 to 83 |
| CC(ON1C(C)(C)CC2(CC1(C)C)OCC(C)(C)CO2)c1ccc(C(=O)c2ccccc2)cc1 (stereo not given) | 104 to 117 |
| N=C(N)NCCOc1ccc2c(c1)NC(=O)C(CCC(=O)O)C2 (stereo not given) | 193 to 196 |
| CCOC(=O)c1c(C)nn(C)c1S(N)(=O)=O | 112 to 113 |
| Cc1cc(C(N)=O)ncc1C(c1c(F)ccc(F)c1F)S(=O)(=O)CCCC(F)(F)F (stereo not given) | 201 to 203 |
| CCCCC[C@H]1CC[C@H](c2ncc(-c3ccc(CCCC)cc3)cn2)CC1 | 87 |
| COC(=O)c1ccc(NC(=O)c2cc(C(C)C)c(C(C)C)o2)cc1O | 156 to 157 |
| Cc1c(N)c(C)c2c(c1CCCO)OCC2c1ccc(C(C)C)cc1 (stereo not given) | 110 to 111 |

| SMILES | melting point [°C] |
| --- | --- |
| CCOC(=O)C(Cc1cnc2ccc(OC)cc2c1)NC(=O)OC(C)(C)C (stereo not given) | 127 |
| CCOC(=O)c1c(CN(CC)CC)nc2sc3c(c2c1-c1ccc(OC)c(OC)c1)CCN(C(=O)OCC)C3 | 119 to 120 |
| CC(C)(C)P1(=O)c2ccccc2CN1c1ccccc1 (stereo not given) | 171 to 172 |
| COC(=O)C#CC(=O)c1cccc(C)c1 | 36 to 38 |
| CC1=NCC2CN=C(c3ccccc3F)c3cc(Cl)ccc3N12 (stereo not given) | 142 to 144 |
| O=c1[nH]c2ncc(-c3ccc(-c4cn[nH]c4)cc3)nc2n1CC1CCCCC1 | 305 to 307 |
| Nc1ncc(-c2cccs2)nc1C(=O)Nc1cccnc1 | 178 to 189 |
| Nc1ncc(Cl)nc1Cl | 117 to 118 |
| CC(C)(C(=O)O)c1ccc(C(=O)C2CC2)cc1 | 84 to 88 |
| COc1cc2c(cc1OC)N(C)C(=O)CN=C2c1cccc(C(C)=O)c1 | 148 to 150 |
| COC(=O)CN1C(=O)CN=C(c2ccccc2)c2cc(Cl)ccc21 | 137 to 138 |
| OCC1(c2ccccc2)COc2ccccc2O1 (stereo not given) | 114 to 116 |
| COc1cc(OCCN2CCCCC2)ccc1/C=C/c1cc(/C=C/c2ccc3cc[nH]c3c2)n[nH]1 | 150 to 155 |
| CS(=O)(=O)c1ccc(NC(=O)c2ccccc2SSc2ccccc2C(=O)Nc2ccc(S(C)(=O)=O)cc2)cc1 | 236 to 238 |
| C=CC(c1cn(-c2ccccc2)nc1OCc1ccc(OCc2nc(-c3ccco3)oc2C)c(OC)c1)n1cncn1 (stereo not given) | 115 to 116 |
| CC1(Br)CN(C2SCN(c3cccc(OC(F)(F)F)c3)C2=O)C1=O (stereo not given) | 111 to 113 |
| CCCc1c(OCCCSCCO)ccc(C(C)=O)c1O | 72 to 74 |
| CCCC(CCC)n1c(CC)nc2c1C(=O)N(C)C(C)N2c1ccc(Cl)cc1Cl (stereo not given) | 144 to 146 |
| O=[N+]([O-])c1ccc(C2(Cn3cncn3)OCCO2)cc1 | 160 |
| Cc1coc(NC(=S)Nc2c(C)cccc2Cl)n1 | 222 |
| Cc1nc2c(S(N)(=O)=O)cccc2s1 | 236 to 239 |
| Cc1nc(S(C)(=O)=O)oc1C | 42 |

Results, then the compound that gave them:

| melting point [°C] | SMILES |
| --- | --- |
| 231 | O=C1CC(c2cccc(-n3ccnn3)c2)=Nc2ccc(-c3cc(F)ccc3F)cc2N1 |
| 195 | Cn1cc(-c2cc(-c3cnc(N)c(C(F)(F)F)c3)ccn2)n(-c2ccc(C(C)(C)C#N)cc2)c1=O |
| 147 to 148 | CCc1cc(OCc2ccc(-c3ccccc3C#N)cc2)c2c(n1)CCCC2 |
| 76 to 78 | NC(N)=NC(=O)Cc1c(-c2ccccc2Cl)csc1-c1ccc(Oc2ccccc2)cc1 |
| 161 to 163 | CCCc1nc2c(C)cnc(C(=O)O)c2n1Cc1ccc(-c2ccccc2-c2nnn[nH]2)cc1 |
| 215 to 216 | CCOCc1nc2c(N)nc3cc(OCc4ccccc4)ccc3c2n1CC(C)(C)O |
| 158 | CCOC(=O)N1CCc2nc3ccccc3c(CO)c2CC1 |
| 146 to 147 | COc1ccc(C(=O)c2ccc(OCc3nc(-c4ccccc4)oc3C)cc2)c(OCC(=O)O)c1 |
| 91 to 93 | COC(=O)COc1cccc2c1CCC(Cc1coc(C(c3ccccc3)c3ccccc3)n1)C2 (stereo not given) |
| 183 | Nc1ccc(C=CC(=O)N2CCc3c([nH]c4ccccc34)C2c2ccc3c(c2)CCO3)cc1 (stereo not given) |
| 187 to 189 | Cc1nc(CS(=O)(=O)c2cccs2)sc1-c1ccnc(Nc2ccc(N3CCOCC3)cc2)n1 |
| 188 to 191 | NS(=O)(=O)c1ccc(-n2nc(C(=O)O)cc2-c2ccccc2)cc1 |
| 176 to 177 | COc1cc(C(=O)N2Cc3ccc(C(=O)NCc4cccc(C(F)(F)F)c4)n3Cc3ccccc32)ccc1-c1ccccc1C |
| 211 to 213 | O=C(NCc1ccc(Cl)cc1)c1cn2c(CO)cc3cccc(c1=O)c32 |
| 235 | Cn1c(=O)cc(-c2cccc(Cl)c2)c2cc(C(=O)c3cccc(I)c3)ccc21 |
| 96 | O=C(c1ccc(OCC2CO2)cc1)c1cccc2[nH]ccc12 (stereo not given) |
| 174 to 176 | Cc1cc(N2CCN(CC(=O)c3ccccc3)C2=O)sc1C(=O)NCc1cccnc1 |
| 164 | O=C(C=Cc1cccc(S(=O)(=O)Nc2ccc3ccccc3c2)c1)NO |
| 103 | Cc1ccc(C(C)C)c(-n2cc(-c3ccccc3)c(C)c2Cl)c1 |
| 61 | COC(=O)CCc1ccc(CNC(=O)C2Cc3ccccc3N2S(=O)(=O)c2ccc(-c3cccc(C(F)(F)F)c3)cc2)cc1 (stereo not given) |
| 244 to 245 | CC1(C)OC(=O)Nc2ccc(-c3cccc([N+](=O)[O-])c3)cc21 |
| 128 to 130 | Nc1ccc(C(=O)c2ccccc2F)cc1 |
| 96 to 97 | CCOP(=O)(Cc1ccc(C(=S)N2CCCc3ccccc32)cc1)OCC |
| > 250 | CCc1cnc2c(NC(=O)c3c(Cl)cccc3Cl)cccc2c1/C=C/C(N)=O |
| 62 to 64 | Cc1ccccc1C(=O)NCN1CCN(c2ccccc2C#N)CC1 |
